Earlier results as cited in patent US8586054B2, “Method for modulating, treating and/or preventing metabolic syndrome using MAS-G-protein-coupled receptor agonists” (Max-Delbruck-Centrum fur Molekulare Medizin, priority 2006, dated 2013).

What was measured:
[1] = LIFE study; compared with atenolol
[2] = HOPE study; versus placebo
[3] = VALUE study; hypertensive patients, valsartan versus amlodipine

SMILES: CCCCc1nc(Cl)c(CO)n1Cc1ccc(-c2ccccc2-c2nn[nH]n2)cc1 [Losartan]
- reduction in the appearance of new cases of diabetes [1]: 25%

SMILES: CCOC(=O)[C@H](CCc1ccccc1)N[C@@H](C)C(=O)N1[C@H](C(=O)O)C[C@@H]2CCC[C@@H]21 [ramipril]
- incidence of diabetes lower than in the group that received placebo [2]: 34%

SMILES: CCCCC(=O)N(Cc1ccc(-c2ccccc2-c2nnn[nH]2)cc1)[C@H](C(=O)O)C(C)C [valsartan]
- reduction in new cases of diabetes [3]: 23%
